Like-named read-outs stand apart in the source and are kept apart here.
How the values were obtained:
[1] = target: cloned human κ opioid receptor (Homo sapiens, UniProt P41145); experiment: Opioid receptor binding assay, [3H]diprenorphine, CHO cell membranes; settings: for inhibition at 10 µM: [3H]diprenorphine binding
Method: (§1) Chinese hamster ovary (CHO) cells are stably transfected with the cloned human μ, κ, or δ opioid receptors. Cells are harvested by scraping them from the culture flask, centrifuging them at 1000×g for 10 min, resuspending them in buffer A and centrifuging again to remove growth medium. The cells are resuspended again in buffer A and homogenized for 30 seconds using a Polytron homogenizer (Brinkmann) at setting 8. The homogenate is centrifuged at 48,000×g for 10 min at 4° C. The pellets are resuspended at 1 mg of protein per mL of buffer A and aliquots stored at −80° C. until use. Buffer A is 50 mM Tris HCl, pH 7.8, containing 1.0 mM EGTA, 5 mM MgC12, 10 mg/mL leupeptin, 10 mg/mL pepstatin A, 200 mg/mL bacitracin, and 0.5 mg/mL aprotinin.
(§2) Receptor binding assays contain 0.4-1.0 nM [3H]diprenorphine (˜40,000 dpm), test compound as appropriate, and membrane preparation in a total volume of 0.5 mL buffer A. After incubation at room temperature for one hour, the samples are filtered through Whatman GF/B filters that have been presoaked in a solution of 0.5% (w/v) polyethylenimine and 0.1% (w/v) bovine serum albumin in water. The filters are rinsed 4×1 mL with cold 50 mM Tris HCl, pH 7.8 and radioactivity remaining on the filters is determined by scintillation spectroscopy. Ki values are determined by Cheng-Prusoff corrections of IC50 values derived from nonlinear regression fits of 12 point titration curves using the program Prism© (GraphPad Software, San Diego, Calif.).

[2] = target: cloned human μ opioid receptor (Homo sapiens, UniProt P35372); experiment: as above; settings: for inhibition at 10 µM: read-out: % Inhibition @ 10 μM, μ
Chain of cloned human μ opioid receptor (P35372 whole entry): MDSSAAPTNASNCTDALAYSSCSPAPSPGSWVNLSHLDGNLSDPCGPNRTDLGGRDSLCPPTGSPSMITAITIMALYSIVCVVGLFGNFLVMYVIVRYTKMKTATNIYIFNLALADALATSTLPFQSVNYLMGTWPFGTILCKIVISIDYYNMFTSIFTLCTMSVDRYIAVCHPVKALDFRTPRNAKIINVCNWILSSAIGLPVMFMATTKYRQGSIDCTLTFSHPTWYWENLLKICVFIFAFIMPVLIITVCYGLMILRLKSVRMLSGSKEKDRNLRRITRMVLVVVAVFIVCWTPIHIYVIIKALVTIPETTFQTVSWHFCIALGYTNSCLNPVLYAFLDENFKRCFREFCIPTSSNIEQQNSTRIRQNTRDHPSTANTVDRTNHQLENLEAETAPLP
Method: as §1, §2

[3] = target: cloned human δ opioid receptor (Homo sapiens, UniProt P41143); experiment: as above; settings: for Ki: cloned human δ receptor in CHO membranes, read-out: Ki, inhibition of [3H]diprenorphine binding, δ
Chain of cloned human δ opioid receptor (P41143 whole entry): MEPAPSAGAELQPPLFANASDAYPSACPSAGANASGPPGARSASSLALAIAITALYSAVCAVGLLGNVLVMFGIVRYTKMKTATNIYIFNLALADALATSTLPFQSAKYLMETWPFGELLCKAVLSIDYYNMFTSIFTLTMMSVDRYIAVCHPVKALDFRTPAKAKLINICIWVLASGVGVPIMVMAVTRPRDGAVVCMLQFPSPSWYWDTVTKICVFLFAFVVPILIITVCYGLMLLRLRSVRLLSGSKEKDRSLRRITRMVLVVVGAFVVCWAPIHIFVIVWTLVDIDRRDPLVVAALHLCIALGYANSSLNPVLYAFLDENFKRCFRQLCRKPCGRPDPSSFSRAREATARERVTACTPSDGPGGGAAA
Method: as §1
The filters are rinsed 4×1 mL with cold 50 mM Tris HCl, pH 7.8 and radioactivity remaining on the filters is determined by scintillation spectroscopy. Ki values are determined by Cheng-Prusoff corrections of IC50 values derived from nonlinear regression fits of 12 point titration curves using the program Prism© (GraphPad Software, San Diego, Calif.).

seizures in mice = experiment: Drug-induced seizures; format: in vivo; settings: for induction of seizures: s.c., doses up to 30 mg/kg, observed 30 min
Method: Mice are injected s.c. with either vehicle (1:1:8, DMSO: Cremophor: Saline), clozapine (3-30 mg/kg), or DMCLZ (3-30 mg/kg). Immediately after injection, the mice are placed in individual plastic cages (30×16×12 cm) lined with bedding. The mice are observed for gross behavioral signs for 30 min, and the presence or absence of seizures is noted.
To determine the role of δ opioid receptors in mediating clozapine-induced seizures, mice are pretreated with either saline or the selective δ antagonist naltrindole (NTI) (1 mg/kg, s.c.) 20 min prior to treatment with vehicle or 30 mg/kg of clozapine.

human δ opioid receptor = human δ opioid receptor (Homo sapiens, UniProt P41143); experiment: Opioid receptor-mediated stimulation of [35S]GTPγS binding; format: biochemical
Chain of human δ opioid receptor (P41143 whole entry): as above
Method: as §1, with “Buffer A is 50 mM Tris HCl, pH 7.8, containing 1.0 mM EGTA, 5 mM MgC12, 10 mg/mL leupeptin, 10 mg/mL pepstatin A, 200 mg/mL bacitracin, and 0.5 mg/mL aprotinin.” left out
Assays contain 80-100 pM [35S]GTPγS, […], 75 mM NaCl, 15 mM MgCl2, 1.0 mM EGTA, 2.1 mM dithiothreitol, 10 mg/mL leupeptin, 10 mg/mL pepstatin A, 200 mg/mL bacitracin, 0.5 mg/mL aprotinin, […] of membrane protein and agonist as appropriate in a final total volume of […] of 50 mM Tris HCl, pH 7.8 in 96 well Basic Flashplates® (NEN). After incubation for one hour at room temperature, the samples are centrifuged at 800×g at 4° C. for 5 min and the radioactivity (cpm) bound to the membranes is determined by scintillation spectrometry.
To determine the IC50 value, which is the concentration to give half-maximal inhibition of agonist-stimulated [35S]GTPγS binding, the cpm of [35S]GTPγS bound in the presence of a fixed concentration of agonist and various concentrations of antagonist is measured. […]

[4] = test system: formalin-induced flinching, late phase; experiment: Formalin-induced flinching; format: in vivo, Sprague-Dawley rats; settings: rat, 300 μg i.paw, late phase 20-35 min after formalin
Method: Male Sprague-Dawley rats weighing 80-120 g are injected s.c. with […] of a 5% formalin solution into the dorsal surface of the right hind paw (i.paw). The flinching behavior is quantified by counting the number of responses that occur during the tonic (late) phase of pain, lasting from 20-35 min after formalin injection. The test compounds are injected i.paw 10 min prior to the formalin injection. The mean percent antagonism (%A) of formalin-induced flinching for drug treated, formalin injected rats is calculated according to the following formula: %A=(Mean formalin response−Mean saline response)−Individual response×100/Mean formalin response−Mean saline response The mean formalin response is the mean number of flinches in rats treated with vehicle prior to the formalin injection. The mean saline response is the mean number of flinches in rats treated with […] saline instead of formalin.

[5] = test system: acetic acid-induced writhing; experiment: Acetic acid-induced writhing; format: in vivo, ICR mice; settings: sc; mouse, s.c., 15 min before acetic acid
Method: Male ICR mice weighing 20-25 g are injected s.c. with either vehicle or test compound 15 min before they are injected intraperitoneally with 0.6% acetic acid. At 5 min after treatment with acetic acid, the number of writhes is counted for 10 min. Dose response curves are expressed as the percent inhibition of acetic acid induced writhing, when compared to the mean number of writhes observed in vehicle-treated mice.
The mean percent inhibition (%I) of acetic acid-induced writhing for drug-treated rats is calculated according to the following formula: [formula]
The mean individual response is the mean number of writhes in rats treated with test compound. The mean vehicle response is the mean number of writhes in rats treated with vehicle.

[6] = human patients; cited from earlier work
[7] = 10 μM, [3H]diprenorphine binding

Chain of cloned human κ opioid receptor (P41145 whole entry): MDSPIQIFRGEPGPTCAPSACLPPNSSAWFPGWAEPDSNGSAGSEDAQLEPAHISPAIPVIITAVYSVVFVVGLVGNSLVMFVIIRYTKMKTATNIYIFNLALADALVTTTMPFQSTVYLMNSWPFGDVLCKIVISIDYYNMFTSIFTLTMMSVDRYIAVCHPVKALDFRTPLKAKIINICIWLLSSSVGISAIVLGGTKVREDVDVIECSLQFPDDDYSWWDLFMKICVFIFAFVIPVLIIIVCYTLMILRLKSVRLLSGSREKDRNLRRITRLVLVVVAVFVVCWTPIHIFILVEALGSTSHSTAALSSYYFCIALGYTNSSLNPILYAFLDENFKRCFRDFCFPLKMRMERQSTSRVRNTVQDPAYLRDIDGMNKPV

Molecule Clc1ccc2c(c1)C(N1CCNCC1)=Nc1ccccc1O2 [Amoxapine] has an inhibition at 10 µM [1] of 25% and an inhibition at 10 µM [2, 7] of 18%.
With C=CCN1C[C@H](C)N([C@H](c2ccc(C(=O)N(CC)CC)cc2)c2cccc(O)c2)C[C@H]1C [BW373U86] the Ki ([1]; cloned human κ receptor in CHO membranes, read-out: Ki, inhibition of [3H]diprenorphine binding, κ) was 149 nM and the Ki ([2]; cloned human μ receptor in CHO membranes, read-out: Ki, inhibition of [3H]diprenorphine binding, μ) was 96 nM.
CN1CCN(C2=Nc3cc(Cl)ccc3Nc3ccccc32)CC1 [Clozapine, 8-chloro-11-(4-methyl-1-piperazinyl)-5H-dibenzo[b,e][1,4]-diazepine] gave a Ki [3] of 928 nM, an inhibition at 10 µM [1] of 11% and an inhibition at 10 µM [2, 7] of 17%. The “blockade of clozapine-induced seizures by the selective δ antagonist naltrindole” value (seizures in mice; naltrindole 1 mg/kg s.c. 20 min before 30 mg/kg clozapine) was “not blocked”.
Work on CN1CCN(C2=Nc3ccccc3Oc3ccc(Cl)cc32)CC1 [Loxapine] yielded an inhibition at 10 µM [3, 7] of 26%, an inhibition at 10 µM [1] of 27% and an inhibition at 10 µM [2, 7] of 0%.
Clc1ccc2c(c1)N=C(N1CCNCC1)c1ccccc1N2 [N-desmethylclozapine] gave a Ki [3] of 24 nM, an inhibition at 10 µM [1] of 64% and an inhibition at 10 µM [2, 7] of 17%. For the same molecule, the EC50 (human δ opioid receptor) was 290 nM, the “agonist character at the human δ opioid receptor” value (human δ opioid receptor; FIG. 3) was “full agonist” and the “percent antagonism (% A) of formalin-induced flinching” value [4] was 56 % A. For the same molecule, the ED50 [5] was 2.2 mg/kg, the induction of seizures (seizures in mice) was “does not induce seizures” and the induction of seizures (seizures in mice; listed as DMCLZ) was “does not produce seizures”. The plasma level [6] was ~620 nM.
With C=CCN1C[C@H](C)N([C@H](c2ccc(C(=O)N(CC)CC)cc2)c2cccc(OC)c2)C[C@H]1C [SNC-80] the inhibition at 1 µM ([1]; read-out: % Inhibition @ 1.0 μM, κ) was 2% and the inhibition at 10 µM [2] was 5.5%.

Source: US6630462B2, “Delta agonist analgesics” (Adolor Corporation, priority 2000, dated 2003)
